Results on one molecule are retold here after patent publication US12473333B2, “Method for increasing ETEC CS6 antigen presentation on cell surface and products obtainable thereof” (Scandinavian Biopharma Holding AB, priority 2011, dated 2025).

The test has as its system CS6 expressing bacteria.

Like-named read-outs stand apart in the source and are kept apart here.

Method: These inactivated bacteria were then used for oral immunizations of mice.
The suspensions were incubated for 2 h at 37° C. with shaking at 60 rpm, and then kept at 4° C. for 3 days without agitation. The bacterial suspensions were then centrifuged, washed, and re-suspended in the same volume of PBS and kept at 4° C. until use. In both inactivation methods, 0.1 ml of each suspension was spread onto blood agar and incubated at 37° C. for up to one week to check for lack of growth. Before being used for oral immunization, the level of CS6 on the inactivated bacteria was checked by inhibition ELISA.

Regarding `Oc1ccccc1` [phenol], the “killing of the bacteria” value runs as follows: (0.25% phenol) “did not result in complete killing of the bacteria”; (0.5% phenol, data not shown) “killed the tested bacteria”.
